Test results reported in publication PMC6287599, “2,6-Bis(2-Benzimidazolyl)Pyridine (BBP) Is a Potent and Selective Inhibitor of Small Conductance Calcium-Activated Potassium (SK) Channels” (Frontiers in Pharmacology, 2018).
Entries after “also recorded” stand apart in the source; their conditions may differ.

Legend:
Kir2.1 = molecular target: T1, Kir2.1 (Homo sapiens, UniProt P63252); experiment: Two-electrode voltage clamp in Xenopus laevis oocytes, Kir2.1; assay type: cell-based; details: BBP 10 μM, TEVC, n = 5
T1 sequence (P63252 1-427): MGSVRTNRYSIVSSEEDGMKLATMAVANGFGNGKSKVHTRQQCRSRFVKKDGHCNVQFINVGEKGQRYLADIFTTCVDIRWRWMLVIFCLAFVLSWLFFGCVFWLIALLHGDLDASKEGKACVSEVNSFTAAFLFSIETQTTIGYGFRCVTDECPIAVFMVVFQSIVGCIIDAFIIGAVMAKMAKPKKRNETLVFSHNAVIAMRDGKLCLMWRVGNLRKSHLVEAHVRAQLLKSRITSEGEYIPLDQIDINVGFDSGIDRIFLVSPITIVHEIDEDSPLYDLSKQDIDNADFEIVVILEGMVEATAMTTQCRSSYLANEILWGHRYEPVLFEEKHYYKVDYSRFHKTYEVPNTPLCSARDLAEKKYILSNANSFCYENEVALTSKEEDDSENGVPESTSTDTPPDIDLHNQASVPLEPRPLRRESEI
Experimental: cRNA was prepared from linearized plasmids using the mMESSAGE mMACHINE T7 kit (Ambion, USA) and quantified by UV spectroscopy (NanoDrop, Thermo Scientific, Wilmington, USA). Xenopus laevis oocytes were acquired from EcoCyte Bioscience (Castrop-Rauxel, Germany). Oocytes were injected with 50 nL cRNA and currents were recorded after 2 days of incubation at 19°C. Currents were recorded at a sampling rate of 10 kHz using a TEVC amplifier (Dagan CA-1B; IL, USA), and borosilicate glass recording electrodes (Module Ohm, Herlev, Denmark), made with a DMZ Universal Puller (Zeitz Instruments, Martinsried, Germany) with a resistance of 0.5–1 MΩ when filled with 2 M KCl. Oocytes were superfused with Kulori (pH 7.4) solution containing NaCl 90 mM, KCl 4 mM, MgCl2 1 mM, CaCl2 1 mM, 4-(2-hydroxyethyl)-1-piperazineethanesulfonic acid 5 mM, and currents were elicited with the voltage protocols previously indicated (Skarsfeldt et al., [2016]), from a holding potential of −80 mV. […]
(§1) To assess the effect of BBP on other calcium-activated potassium channels (hBK, hSK3 WT, rSK3 H491N, and hIK), each individual current was first normalized to its cell size using membrane's capacitance (pA/pF) before statistical analysis. […] Statistical significance between saline and the effect of both BBP and the corresponding reference compound was determined for each channel using one-way ANOVA analysis. […]

all SK channel subtypes = experiment: Manual patch clamp, summary over all SK channel subtypes; assay type: cell-based, human; details: BBP 1 μM
Experimental: HEK293 cells were transiently co-transfected with the plasmid of interest (hBK, hSK1, hSK2, hSK3 WT, rSK3 H491N, or hIK) and eGFP using standard Lipofectamine™ 2000 (Thermo Fisher Scientific, Waltham, Massachussets, USA) transfection protocols. After transfection, cells were incubated overnight before the experiments.
Manual patch clamp experiments were performed at room temperature in the whole cell configuration with a HEKA EPC9 amplifier and the Patchmaster software (HEKA Elektronik, Ludwigshafen, Germany). All currents were elicited every 2 s using an incremental 200 ms voltage-ramp protocol starting at −80 mV and finishing at +80 mV from a holding potential of 0 mV. […] Currents were measured using the same solutions as the ones used for automated patch clamp, with symmetrical potassium concentrations and a free intracellular calcium concentration of 400 nM. […]
as §1

## c1cc(-c2nc3ccccc3[nH]2)nc(-c2nc3ccccc3[nH]2)c1 [BBP, 2,6-Bis(2-benzimidazolyl)pyridine]
Kir2.1
  Effect on Kir2.1 current: did not have any effect; also recorded: did not significantly affect
All SK channel subtypes
  Effect on all SK currents (in words): totally inhibited
  Voltage dependence of inhibition (−80 vs +80 mV): no significant differences
